According to patent publication US20210403567A1, “METHODS OF TREATING CERVICAL CANCER BY ADMINISTERING A PD-1 INHIBITOR” (priority 2020, published 2021):
Where “and” joins values, the source holds several entries; their conditions need not be identical. Identical values can stand only once.

Experiments:
[1] = test system: recurrent or metastatic cervical cancer that has progressed after platinum-containing chemotherapy; assay: Phase 3 trial, cemiplimab 350 mg IV Q3W versus investigator's choice (IC) chemotherapy: OS, PFS, ORR, DOR; details: for OS subgroup analysis, Hazard Ratio (95% CI) / OS Hazard Ratio (95% CI): cemiplimab vs chemotherapy; for Median OS (95% CI) / Median DOR, months (95% CI): Kaplan-Meier;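 on all read-outs here: randomized trial arms, OS counted from randomization until death with censoring at last contact, PFS until first RECIST 1.1 progression or death from any cause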
[2] = test system: recurrent or metastatic cervical cancer; assay: Phase I expansion cohorts: cemiplimab 3 mg/kg IV Q2W alone or plus hfRT, tumor response (RECIST 1.1), PFS, OS; assay type: in vivo, human
Description: The combination therapy cohort enrolled patients for whom palliative hfRT was planned to a lesion that was causing some signs or symptoms. The radiated lesion was not followed as a target lesion for response assessments.
Additional eligibility criteria included an Eastern Cooperative Oncology Group performance status score of 0 or 1, and adequate organ function. Patients were required to have at least one measurable lesion per Response Evaluation Criteria in Solid Tumors (RECIST) version 1.1. (Eisenhauer et al., Eur J Cancer 45 (2009) 228-47). In the combination therapy cohort, the measureable lesion(s) were in addition to the irradiated lesion.
Assessments: Tumor histology was assessed per local pathology reports of tumor samples obtained at any time prior to study enrollment. […] Extensive safety evaluations were performed during screening and on Day 1 of each subsequent treatment cycle throughout the study. Routine safety evaluations were performed at each cemiplimab dosing visit. Tumor response assessments were performed by investigators, per RECIST 1.1, at the end of each 8-week treatment cycle. In combination therapy cohorts, the lesions selected for hfRT were not included in RECIST 1.1 assessments.
Statistical analysis of clinical data: The safety summaries and analyses were performed on the safety analysis set. Data were summarized using descriptive statistics, along with two-sided 95% confidence interval (CI), by dose cohort. Continuous variables were summarized with mean, median, standard deviation, minimum, and maximum. Categorical variables were summarized with frequency and percentage. Kaplan-Meier analysis was performed for progression-free survival (PFS) and OS.

[3] = overall population, listed as cemiplimab
[4] = overall population, N=304 per arm
[5] = investigator assessment, n = 10 per cohort

Substance: cemiplimab
- OS subgroup analysis, Hazard Ratio (95% CI) ([1]; Geographic region: North America): 0.52 (0.27-1.00)
- OS subgroup analysis, Hazard Ratio (95% CI) ([1]; Geographic region: Rest of World): 0.73 (0.57-0.94)
- OS subgroup analysis, Hazard Ratio (95% CI) ([1]; Prior bevacizumab use: No): 0.76 (0.58-1.00)
- OS subgroup analysis, Hazard Ratio (95% CI) ([1]; Prior bevacizumab use: Yes): 0.64 (0.48-0.86)
- Reduced risk of death (vs. chemotherapy) ([1]; SCC): 27%
- Estimated Event-Free Probability (PFS), % (95% CI) ([1]; SCC, 6 months): 34.5 (28.5, 40.5) %
- Estimated Survival Probability, % (95% CI) ([1]; SCC, 6 months): 69.6 (63.3, 75.0) %
- Estimated Event-Free Probability (PFS), % (95% CI) ([1]; SCC, 12 months): 21.0 (15.8, 26.6) %
- Estimated Survival Probability, % (95% CI) ([1]; SCC, 12 months): 48.2 (41.3, 54.7) %
- Estimated Event-Free Probability (PFS), % (95% CI) ([1]; SCC, 18 months): 14.5 (9.7, 20.1) %
- Estimated Survival Probability, % (95% CI) ([1]; SCC, 18 months): 33.4 (26.3, 40.6) %
- Estimated Event-Free Probability (PFS), % (95% CI) ([1]; SCC, 24 months): 10.3 (5.9, 16.0) %
- Estimated Survival Probability, % (95% CI) ([1]; SCC, 24 months): 25.3 (17.8, 33.5) %
- Estimated Event-Free Probability (PFS), % (95% CI) ([1]; SCC, 30 months): 7.7 (3.2, 14.8) %
- Estimated Survival Probability, % (95% CI) ([1]; SCC, 30 months): 25.3 (17.8, 33.5) %
- Median OS (95% CI) ([1]; SCC): 11.1 (9.2, 13.4) months
- Median OS (95% CI) ([1]; SCC, listed as cemiplimab): 11.1 months
- OS Hazard Ratio (95% CI) ([1]; SCC, stratified proportional hazards model): 0.727 (0.579, 0.914) and 0.73 (0.58-0.91)
- OS Hazard Ratio (95% CI) ([1]; SCC, stratified proportional hazards model, listed as cemiplimab): 0.73
- ORR ([1]; SCC, listed as cemiplimab): 17.6% and 18%
- Reduced risk of death (vs. chemotherapy) ([1]; SCC, listed as cemiplimab): 27%
- OS: Number of deaths ([1]; adenocarcinoma/adenosquamous (AC), cemiplimab N=65, chemo N=66): 41 (63.1%) n (%)
- Median observed time to response, months (range) ([1]; overall population): 2.7 (1.2-11.4) months
- Reduced risk of death (vs. chemotherapy) ([1]; overall population): 31%
- Estimated Event-Free Probability (PFS), % (95% CI) ([1]; overall population, 6 months): 33.5 (28.2, 38.9) %
- Estimated Survival Probability, % (95% CI) ([1]; overall population, 6 months): 69.6 (64.0, 74.5) %
- Estimated Event-Free Probability (PFS), % (95% CI) ([1]; overall population, 12 months): 18.8 (14.4, 23.6) %
- Estimated Survival Probability, % (95% CI) ([1]; overall population, 12 months): 50.2 (44.1, 56.0) %
- Estimated Event-Free Probability (PFS), % (95% CI) ([1]; overall population, 18 months): 13.0 (9.0, 17.8) %
- Estimated Survival Probability, % (95% CI) ([1]; overall population, 18 months): 33.4 (27.2, 39.7) %
- Estimated Event-Free Probability (PFS), % (95% CI) ([1]; overall population, 24 months): 9.7 (6.0, 14.6) %
- Estimated Survival Probability, % (95% CI) ([1]; overall population, 24 months): 23.6 (17.1, 30.6) %
- Estimated Event-Free Probability (PFS), % (95% CI) ([1]; overall population, 30 months): 7.8 (3.8, 13.6) %
- Estimated Survival Probability, % (95% CI) ([1]; overall population, 30 months): 23.6 (17.1, 30.6) %
- Median DOR, months (95% CI) ([1]; overall population): 16.4 (12.4, NE) months
- Median OS (95% CI) ([1]; overall population): 12.0 (10.3, 13.5) months
- Median DOR, months (95% CI) [1, 3]: 16 months
- Median OS (95% CI) [1, 3]: 12 months and 12.0 months
- Best Overall Tumor Response: Complete Response (CR) [1, 4]: 10 (3.3) n (%)
- Best Overall Tumor Response: Not Evaluable (NE) [1, 4]: 24 (7.9) n (%)
- Best Overall Tumor Response: Partial Response (PR) [1, 4]: 40 (13.2) n (%)
- Best Overall Tumor Response: Progressive Disease (PD) [1, 4]: 105 (34.5) n (%)
- OS: Number of censored patients [1, 4]: 120 (39.5%) n (%)
- OS: Number of deaths [1, 4]: 184 (60.5%) n (%)
- Objective Response Rate (ORR: CR + PR) [1, 4]: 50 (16.4%) n (%)
- OS Hazard Ratio (95% CI) ([1]; overall population): 0.685 (0.560, 0.838)
- OS Hazard Ratio (95% CI) [1, 3]: 0.69
- ORR [1, 3]: 16.4% and 16%
- Reduced risk of death (vs. chemotherapy) [1, 3]: 31%
- OS subgroup analysis, Hazard Ratio (95% CI) ([1]; prior lines: 1 line): 0.74 (0.58-0.94)
- OS subgroup analysis, Hazard Ratio (95% CI) ([1]; prior lines: >1 line): 0.72 (0.54-0.95)
- objective response rate among cervical cancer patients enrolled in the phase I study ([2]; 4/23 combined: dose escalation plus expansion cohorts): 17%
- responding patients in expansion cohorts ([2]; both expansion cohorts combined): 2/20
- NE (not evaluable), n (%) ([2]; includes missing and unknown tumor response, n = 10 per cohort): 1 n (%)
- ORR, % (95% CI) ([2]; investigator assessment, RECIST 1.1, n = 10 per cohort): 10.0%
- Partial response, n (%) [2, 5]: 1 n (%)
- Progressive disease, n (%) [2, 5]: 5 n (%)
- Stable disease, n (%) [2, 5]: 3 n (%)
- Kaplan-Meier estimation of median OS ([2]; n = 10 per cohort): 10.3 months
- Kaplan-Meier estimation of median PFS ([2]; n = 10 per cohort): 1.9 months
- patients with best response of stable disease ([2]; n = 10 per cohort): 30%
- Disease control rate, % (95% CI) ([2]; objective response or stable disease, n = 10 per cohort): 40.0%
- patients with partial response ([2]; one patient in each cohort of 10): 10%
- DOR (duration of response) ([2]; one responder in each group): 11.2 months
- Observed time to response ([2]; one responder in each group): 1.8 months
- Durable disease control rate, % (95% CI) ([2]; without progression for at least 16 weeks (105 days), n = 10 per cohort): 20.0%
